Values of other authors in publication PMC12652113, “Fluorescent Albumin-Binding N-Propylbenzene Indolenine-Based Squaraines as Potential Candidates for Prostate Cancer Photodynamic Therapy Photosensitizers” (International Journal of Molecular Sciences, 2025).

Details: in dimethylformamide; reference value used for the calculation; cited from earlier work

In the case of `[Zn+2].c1ccc2c(c1)-c1nc-2nc2[n-]c(nc3nc([n-]c4nc(n1)-c1ccccc1-4)-c1ccccc1-3)c1ccccc21` [Zinc phthalocyanine, zinc phthalocyanine], the “fluorescence quantum yield (ΦF) of the reference standard” value is given as 0.17.
